Assay [1] has as its target T1, Gaussia luciferase (GLase) (Gaussia princeps (in: crustaceans), UniProt Q9BLZ2).
T1 construct: C-terminal His tag, signal peptide removed by secretion; stably expressed in CHO-K1/dhfr- cells (pcDNA3-hGL-H), Ni column
T1 sequence (Q9BLZ2 18-185): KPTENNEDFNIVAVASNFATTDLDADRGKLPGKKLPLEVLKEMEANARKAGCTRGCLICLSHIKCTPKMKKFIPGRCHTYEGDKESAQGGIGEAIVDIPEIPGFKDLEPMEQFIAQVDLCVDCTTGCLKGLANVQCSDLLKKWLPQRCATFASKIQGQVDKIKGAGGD
Briefly: luminescence inhibition with coelenterazine. Particulars: coelenterazine 1.2 × 10^−4 M (so in the source); 1 μg each in 200 μL), 30 mM Tris-HCl, 10 mM EDTA, 1 min preincubation; no inhibitor = 100. The class given is biochemical. The source says: luminescence inhibition with coelenterazine on Gaussia luciferase (GLase)

In assay [2] the target is T2, native Oplophorus luciferase (OpLase) (Oplophorus gracilirostris, UniProt Q9GV45).
T2 construct: 19 kDa and 35 kDa subunits, 106 kDa; with Oplophorus-luciferin 2-monooxygenase non-catalytic subunit
T2 sequence (Q9GV45 28-196): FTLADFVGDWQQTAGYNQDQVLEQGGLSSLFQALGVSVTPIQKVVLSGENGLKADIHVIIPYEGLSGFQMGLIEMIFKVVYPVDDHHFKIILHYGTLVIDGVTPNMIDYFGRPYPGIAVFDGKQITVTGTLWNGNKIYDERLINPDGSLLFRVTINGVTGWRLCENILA
T2 sequence (Q9GV46 40-359 partner): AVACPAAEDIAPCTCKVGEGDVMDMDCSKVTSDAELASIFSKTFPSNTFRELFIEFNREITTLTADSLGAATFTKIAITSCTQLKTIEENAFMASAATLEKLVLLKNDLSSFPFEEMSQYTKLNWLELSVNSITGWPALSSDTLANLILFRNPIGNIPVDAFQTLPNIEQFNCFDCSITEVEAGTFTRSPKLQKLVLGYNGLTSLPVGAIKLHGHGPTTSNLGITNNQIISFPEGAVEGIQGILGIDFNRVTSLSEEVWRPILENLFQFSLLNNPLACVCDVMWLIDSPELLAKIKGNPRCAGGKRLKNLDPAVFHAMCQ
Briefly: luminescence inhibition with coelenterazine. The assay is classed as biochemical. The note with it: coelenterazine 1.2 × 10^−4 M (so in the source); 1 μg each in 200 μL), 30 mM Tris-HCl, 10 mM EDTA, 1 min preincubation; no inhibitor = 100. An excerpt:
luminescence inhibition with coelenterazine on native Oplophorus luciferase (OpLase)

The text below walks through data of PMC9491549, “Reverse mutants of the catalytic 19 kDa mutant protein (nanoKAZ/nanoLuc) from Oplophorus luciferase with coelenterazine as preferred substrate” (PLoS ONE, 2022).

Turning to `O=C1c2cc(-c3ccc(O)cc3)cc(Cc3ccccc3)c2C[C@H]1Cc1ccc(O)cc1` [(R)-daCTZ], the “Relative luminescence activity (Imax, %) / GLase ^a” value in assay [1] is recorded as 0.5%. Further, in assay [2], the “Relative luminescence activity (Imax, %) / OpLase ^a” value is listed as 5.1%.
In the case of `O=C1c2cc(-c3ccc(O)cc3)cc(Cc3ccccc3)c2C[C@@]1(CO)Cc1ccc(O)cc1` [(R)-HM-daCTZ], the “Relative luminescence activity (Imax, %) / GLase ^a” value in assay [1] is given as 23.5%. Also, the “Relative luminescence activity (Imax, %) / OpLase ^a” value in assay [2] was determined as 33.5%.
With `O=C1c2cc(-c3ccc(O)cc3)cc(Cc3ccccc3)c2C[C@@H]1Cc1ccc(O)cc1` [(S)-daCTZ], the “Relative luminescence activity (Imax, %) / QL-nanoKAZ ^a” value in assay [1] was 0.4%. For the same compound, the “Relative luminescence activity (Imax, %) / OpLase ^a” value in assay [2] came out at 2.1%.
Take `O=C1c2cc(-c3ccc(O)cc3)cc(Cc3ccccc3)c2C[C@]1(CO)Cc1ccc(O)cc1` [(S)-HM-daCTZ]: in assay [1], the “Relative luminescence activity (Imax, %) / GLase ^a” value was found to be 5.3%. Also, the “Relative luminescence activity (Imax, %) / OpLase ^a” value in assay [2] turned out to be 19.7%.
